# Reference: PMC6199744, “Development of Chemical Proteomics for the Folateome and Analysis of the Kinetoplastid Folateome” (ACS Infectious Diseases, 2018)
# Read-outs that look alike come from different tables or passages of the source.
# Experiments:
# Format in all cases: binding
# [1] = target: T1, HeLa cell extract proteins (Homo sapiens, UniProt O15260)
# T1 construct: endogenous in cells; host or cells: HeLa cell extract
# [2] = target: T2, HeLa cell extract proteins (Homo sapiens, UniProt P49721)
# T2 construct: endogenous in cells; host or cells: HeLa cell extract
# T2 sequence (P49721 whole entry): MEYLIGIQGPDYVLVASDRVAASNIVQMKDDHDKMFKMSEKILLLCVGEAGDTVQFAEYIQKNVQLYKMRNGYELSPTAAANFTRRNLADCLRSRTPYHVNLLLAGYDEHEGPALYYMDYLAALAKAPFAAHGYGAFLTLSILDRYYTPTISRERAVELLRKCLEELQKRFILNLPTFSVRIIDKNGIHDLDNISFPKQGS
# [3] = target: T3, HeLa cell extract proteins (Homo sapiens, UniProt P30050)
# T3 construct: endogenous in cells; host or cells: HeLa cell extract
# [4] = target: T4, HeLa cell extract proteins (Homo sapiens, UniProt Q8NF37)
# T4 construct: endogenous in cells; host or cells: HeLa cell extract
# T4 sequence (Q8NF37 1-534): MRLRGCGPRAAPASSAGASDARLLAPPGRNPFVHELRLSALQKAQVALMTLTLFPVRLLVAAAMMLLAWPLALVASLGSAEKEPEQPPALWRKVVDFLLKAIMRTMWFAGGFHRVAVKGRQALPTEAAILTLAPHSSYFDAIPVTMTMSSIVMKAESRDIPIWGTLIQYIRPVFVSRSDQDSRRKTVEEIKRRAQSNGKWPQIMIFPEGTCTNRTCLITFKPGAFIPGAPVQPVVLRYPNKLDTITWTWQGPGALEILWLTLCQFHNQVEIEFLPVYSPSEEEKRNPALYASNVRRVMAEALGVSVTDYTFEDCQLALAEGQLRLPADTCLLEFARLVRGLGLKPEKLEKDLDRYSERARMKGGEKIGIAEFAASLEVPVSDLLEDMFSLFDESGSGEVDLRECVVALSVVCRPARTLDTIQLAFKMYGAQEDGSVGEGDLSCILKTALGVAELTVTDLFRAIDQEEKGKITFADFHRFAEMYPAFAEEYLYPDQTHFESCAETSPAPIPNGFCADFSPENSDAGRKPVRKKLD
# [5] = target: T5, HeLa cell extract proteins (Homo sapiens, UniProt P38606)
# T5 construct: endogenous in cells; host or cells: HeLa cell extract
# T5 sequence (P38606 whole entry): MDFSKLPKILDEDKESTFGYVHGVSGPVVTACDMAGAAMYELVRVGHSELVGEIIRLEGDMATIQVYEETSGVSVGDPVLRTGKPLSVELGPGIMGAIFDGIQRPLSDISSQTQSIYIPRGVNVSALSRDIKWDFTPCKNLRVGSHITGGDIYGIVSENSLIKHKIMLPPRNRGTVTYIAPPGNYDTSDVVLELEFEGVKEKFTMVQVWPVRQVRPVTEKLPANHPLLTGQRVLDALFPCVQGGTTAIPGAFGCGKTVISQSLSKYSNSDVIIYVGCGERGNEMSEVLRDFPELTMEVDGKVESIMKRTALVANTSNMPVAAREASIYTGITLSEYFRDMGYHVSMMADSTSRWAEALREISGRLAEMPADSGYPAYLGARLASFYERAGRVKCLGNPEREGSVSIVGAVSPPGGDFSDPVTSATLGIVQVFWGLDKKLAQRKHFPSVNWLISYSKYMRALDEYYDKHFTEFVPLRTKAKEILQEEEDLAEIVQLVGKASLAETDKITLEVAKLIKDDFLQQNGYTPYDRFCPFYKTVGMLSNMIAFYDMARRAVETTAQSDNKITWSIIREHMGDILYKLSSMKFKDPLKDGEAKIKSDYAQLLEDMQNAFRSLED
# [6] = target: T6, HeLa cell extract proteins (Homo sapiens, UniProt Q9Y6E2)
# T6 construct: endogenous in cells; host or cells: HeLa cell extract
# T6 sequence (Q9Y6E2 1-419): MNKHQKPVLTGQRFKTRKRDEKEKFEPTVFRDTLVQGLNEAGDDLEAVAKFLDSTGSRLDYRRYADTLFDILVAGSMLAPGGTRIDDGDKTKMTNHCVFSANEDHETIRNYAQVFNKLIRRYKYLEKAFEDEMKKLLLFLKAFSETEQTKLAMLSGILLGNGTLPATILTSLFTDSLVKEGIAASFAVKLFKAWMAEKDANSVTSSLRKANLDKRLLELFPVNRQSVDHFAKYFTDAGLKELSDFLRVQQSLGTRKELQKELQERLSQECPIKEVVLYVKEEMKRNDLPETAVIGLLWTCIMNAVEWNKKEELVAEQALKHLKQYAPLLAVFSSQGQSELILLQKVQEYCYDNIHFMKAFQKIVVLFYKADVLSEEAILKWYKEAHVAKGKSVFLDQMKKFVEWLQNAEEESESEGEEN
# [7] = target: T7, HeLa cell extract proteins (Homo sapiens, UniProt Q9C0E2)
# T7 construct: endogenous in cells; host or cells: HeLa cell extract
# T7 sequence (Q9C0E2 whole entry): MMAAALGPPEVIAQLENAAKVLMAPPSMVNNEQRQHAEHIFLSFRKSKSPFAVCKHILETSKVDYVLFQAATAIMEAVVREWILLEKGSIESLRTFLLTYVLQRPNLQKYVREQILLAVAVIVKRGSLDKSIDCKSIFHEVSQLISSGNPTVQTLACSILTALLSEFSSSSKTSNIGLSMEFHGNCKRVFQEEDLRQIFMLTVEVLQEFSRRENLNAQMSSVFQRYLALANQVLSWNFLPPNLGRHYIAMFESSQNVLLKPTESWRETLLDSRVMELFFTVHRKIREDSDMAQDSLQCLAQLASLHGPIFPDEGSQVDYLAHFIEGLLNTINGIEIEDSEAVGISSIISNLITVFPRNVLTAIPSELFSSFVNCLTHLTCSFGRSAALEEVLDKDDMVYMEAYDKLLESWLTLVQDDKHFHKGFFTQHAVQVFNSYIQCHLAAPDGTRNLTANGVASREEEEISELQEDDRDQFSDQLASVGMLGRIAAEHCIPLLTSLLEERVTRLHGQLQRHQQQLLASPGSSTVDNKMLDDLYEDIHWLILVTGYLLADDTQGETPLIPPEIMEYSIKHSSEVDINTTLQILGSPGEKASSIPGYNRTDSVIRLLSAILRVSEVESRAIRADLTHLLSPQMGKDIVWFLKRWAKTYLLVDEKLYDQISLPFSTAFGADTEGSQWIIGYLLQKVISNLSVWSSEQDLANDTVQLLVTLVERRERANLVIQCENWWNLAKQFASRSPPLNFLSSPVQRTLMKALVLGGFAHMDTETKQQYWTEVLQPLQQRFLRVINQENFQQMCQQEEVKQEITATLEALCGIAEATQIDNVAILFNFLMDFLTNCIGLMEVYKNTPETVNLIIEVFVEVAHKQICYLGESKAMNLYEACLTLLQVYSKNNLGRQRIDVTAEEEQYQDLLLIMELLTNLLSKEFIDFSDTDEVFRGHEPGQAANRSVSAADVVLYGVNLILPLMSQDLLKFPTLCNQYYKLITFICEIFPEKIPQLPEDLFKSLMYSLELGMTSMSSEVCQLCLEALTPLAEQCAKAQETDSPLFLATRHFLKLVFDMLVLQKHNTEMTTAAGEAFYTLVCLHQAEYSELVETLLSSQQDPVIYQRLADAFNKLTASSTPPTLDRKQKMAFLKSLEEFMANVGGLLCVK
# [8] = target: T8, HeLa cell extract proteins (Homo sapiens, UniProt Q86VP6)
# T8 construct: endogenous in cells; host or cells: HeLa cell extract
# T8 sequence (Q86VP6 1-1230): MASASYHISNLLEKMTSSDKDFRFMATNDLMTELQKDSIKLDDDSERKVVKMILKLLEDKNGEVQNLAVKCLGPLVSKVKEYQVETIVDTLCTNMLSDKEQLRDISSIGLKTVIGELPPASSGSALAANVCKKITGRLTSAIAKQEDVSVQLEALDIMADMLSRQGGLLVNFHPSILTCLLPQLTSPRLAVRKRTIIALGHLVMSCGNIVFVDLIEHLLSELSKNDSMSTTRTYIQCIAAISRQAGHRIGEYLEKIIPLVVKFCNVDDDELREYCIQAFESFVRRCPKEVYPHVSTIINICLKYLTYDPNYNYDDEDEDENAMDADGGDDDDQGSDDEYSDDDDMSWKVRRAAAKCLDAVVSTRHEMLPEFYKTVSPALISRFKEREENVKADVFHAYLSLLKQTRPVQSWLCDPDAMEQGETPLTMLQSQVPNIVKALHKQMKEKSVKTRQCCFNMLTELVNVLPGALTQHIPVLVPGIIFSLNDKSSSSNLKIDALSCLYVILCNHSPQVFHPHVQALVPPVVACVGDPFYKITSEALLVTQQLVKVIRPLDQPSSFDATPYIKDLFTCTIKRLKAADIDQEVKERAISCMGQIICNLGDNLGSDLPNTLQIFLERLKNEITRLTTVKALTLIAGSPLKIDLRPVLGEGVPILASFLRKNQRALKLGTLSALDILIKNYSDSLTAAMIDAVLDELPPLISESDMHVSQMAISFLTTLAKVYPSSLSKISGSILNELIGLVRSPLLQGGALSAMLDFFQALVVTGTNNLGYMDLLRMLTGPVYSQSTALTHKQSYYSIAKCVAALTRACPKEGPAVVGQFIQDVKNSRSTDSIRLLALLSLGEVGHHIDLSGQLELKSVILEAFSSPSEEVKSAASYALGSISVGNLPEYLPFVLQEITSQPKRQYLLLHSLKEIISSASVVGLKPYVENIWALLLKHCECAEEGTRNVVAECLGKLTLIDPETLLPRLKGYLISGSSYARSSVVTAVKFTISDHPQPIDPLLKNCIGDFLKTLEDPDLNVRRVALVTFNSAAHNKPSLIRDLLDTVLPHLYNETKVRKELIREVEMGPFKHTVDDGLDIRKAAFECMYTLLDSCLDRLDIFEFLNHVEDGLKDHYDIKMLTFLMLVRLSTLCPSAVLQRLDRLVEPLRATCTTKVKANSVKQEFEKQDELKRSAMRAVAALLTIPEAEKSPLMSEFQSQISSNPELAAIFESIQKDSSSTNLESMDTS
# [9] = target: T9, HeLa cell extract proteins (Homo sapiens, UniProt P06733)
# T9 construct: endogenous in cells; host or cells: HeLa cell extract
# T9 sequence (P06733 whole entry): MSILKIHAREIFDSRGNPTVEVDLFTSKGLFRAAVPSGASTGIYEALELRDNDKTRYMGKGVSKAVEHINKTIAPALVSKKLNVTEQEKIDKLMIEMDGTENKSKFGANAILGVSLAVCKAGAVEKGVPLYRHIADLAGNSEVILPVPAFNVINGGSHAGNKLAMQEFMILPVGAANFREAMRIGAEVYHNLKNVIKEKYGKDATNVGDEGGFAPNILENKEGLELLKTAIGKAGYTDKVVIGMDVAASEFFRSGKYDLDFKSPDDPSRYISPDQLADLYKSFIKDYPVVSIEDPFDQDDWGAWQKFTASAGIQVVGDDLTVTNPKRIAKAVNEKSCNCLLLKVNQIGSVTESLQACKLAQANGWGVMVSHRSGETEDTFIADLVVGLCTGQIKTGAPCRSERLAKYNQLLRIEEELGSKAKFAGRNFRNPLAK
# [10] = HeLa, protein ENO1 (ISOFORM ALPHA-ENOLASE OF ALPHA-ENOLASE.)
# T1 sequence (O15260 whole entry): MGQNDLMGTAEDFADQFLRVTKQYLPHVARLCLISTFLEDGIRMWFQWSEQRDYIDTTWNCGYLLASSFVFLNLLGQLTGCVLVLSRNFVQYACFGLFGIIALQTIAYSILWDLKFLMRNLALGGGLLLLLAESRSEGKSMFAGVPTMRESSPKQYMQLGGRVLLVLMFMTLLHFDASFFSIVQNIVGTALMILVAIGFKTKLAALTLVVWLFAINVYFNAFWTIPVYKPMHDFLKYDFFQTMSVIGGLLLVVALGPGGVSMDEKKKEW
Structure (SMILES),"fold changes relative to vehicle control ([1]; captured protein SURF4, HeLa)","fold changes relative to vehicle control ([2]; HeLa, protein PSMB2)","fold changes relative to vehicle control ([3]; protein RPL12, HeLa)","fold changes relative to vehicle control ([4]; HeLa, protein LPCAT1)","fold changes relative to vehicle control ([5]; protein ATP6V1A, HeLa)","fold changes relative to vehicle control ([6]; protein BZW2, HeLa)","fold changes relative to vehicle control ([7]; HeLa, protein XPO4)","fold changes relative to vehicle control ([8]; protein CAND1, HeLa)","fold changes relative to vehicle control [9, 10]","fold changes relative to vehicle control ([1]; HeLa, captured protein SURF4)","fold changes relative to vehicle control ([2]; HeLa, captured protein PSMB2)","fold changes relative to vehicle control ([3]; HeLa, captured protein RPL12)","fold changes relative to vehicle control ([4]; protein LPCAT1, HeLa)","fold changes relative to vehicle control ([5]; HeLa, protein ATP6V1A)","fold changes relative to vehicle control ([6]; HeLa, protein BZW2)","fold changes relative to vehicle control ([9]; HeLa, protein ENO1)",also measured
Nc1nc2cccc(-c3ccccc3)c2n1Cc1ccc(Cl)c(Cl)c1 [compound 3],1.03,1.07,1.08,1.11,0.83,0.93,1.07,0.86,0.84 fold,–,–,–,–,–,–,–,–
CCCCCCOc1ccc(Cc2cnc(N)nc2N)cc1 [compound 1],0.9,1.03,1.15,0.93,1.04,1.11,0.91,1.15,1.47 fold,–,–,–,–,–,–,–,–
NCCCNc1ccc(C(=O)NC(CCC(=O)O)C(=O)O)cc1 (stereo not drawn) [compound 7],–,–,–,–,–,–,1,0.77,–,0.92,1.07,0.97,1.07,0.93,1.12,0.9,–
CCCCCCOc1cccc(Cc2cnc(N)nc2N)c1 [compound 2],1,1.24,1.24,1.07,1.5,1.57,1.08,1.95,2.6 fold,–,–,–,–,–,–,–,–
NCCOCCOCC(=O)Nc1nc2ncc(CNc3ccc(C(=O)NC(CCC(=O)O)C(=O)O)cc3)nc2c(=O)[nH]1 (stereo not drawn) [compound 6],–,–,–,–,–,–,0.94,1.11,–,0.95,1.03,1.12,0.92,1.04,1.1,1.26,–
"Nc1nc2[nH]cc(CCc3ccc(C(=O)N[C@@H](CCC(=O)O)C(=O)O)cc3)c2c(=O)[nH]1 [PTX, pemetrexed]",–,–,–,–,–,–,–,–,–,–,–,–,–,–,–,–,fold changes relative to vehicle control [1]: 0.9; fold changes relative to vehicle control [2]: 1.13; fold changes relative to vehicle control [3]: 1.13; fold changes relative to vehicle control [4]: 1; fold changes relative to vehicle control [5]: 0.9; fold changes relative to vehicle control [6]: 0.98; fold changes relative to vehicle control [7]: 0.82; fold changes relative to vehicle control [8]: 0.96; fold changes relative to vehicle control [9]: 1.14
"Nc1nc2c(c(=O)[nH]1)N(C=O)C(CNc1ccc(C(=O)N[C@@H](CCC(=O)O)C(=O)O)cc1)CN2 (stereo partly drawn) [LEU, leucovorin]",–,–,–,–,–,–,0.92,0.99,–,0.86,1.2,1.11,0.85,1,0.99,1.07,–
